One may read the EC50 as the concentration needed to bring the measured effect to its halfway point.

Where two headings read alike, the source gives them in different places.

Consider 37 compounds from patent US20240327393A1 (SIRONAX LTD., priority 2021, published 2024).

In the experiment the test system is HT-1080 (ATCC, CCL-121) cells. The experiment can be described thus: HT-1080 cell viability assay with ferroptosis inducer RSL3 (Cell Titer-Glo). It counts as cell-based. Conditions: Homo sapiens, HT-1080 cells treated with RSL3, 3-fold, 10-point dilution, 1.1 μM highest concentration, read-out: EC50 (nM), ferroptosis inhibitory activity. In short, it runs like this: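 EC50 was derived by sigmoidal dose-response regression of CellTiter-Glo luminescence viability, expressed relative to untreated wells. Compounds were tested in a ten-point, threefold dilution series (highest 1.1 μM) in the presence of the ferroptosis inducer RSL3. HT-1080 cells had been seeded at 6000 per well and grown overnight first.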

With `CC1CCN(c2ccc(Nc3ccc4c(c3)CN(C3CCN(C)CC3)C4=O)cc2)CC1` [Compound 249, 5-((4-(4-methylpiperidin-1-yl)phenyl)amino)-2-(1-methylpiperidin-4-yl) isoindolin-1-one], the EC50 (Table 2) lay in the range of 0.1 to 100 nM.

Consider `Cn1c(=O)n(C)c2ncc(Nc3ccc(N4CCC(C(F)(F)F)CC4)cc3)cc21` [Compound 343, 1,3-dimethyl-6-((4-(4-(trifluoromethyl)piperidin-1-yl)phenyl)amino)-1,3-dihydro-2H-imidazo[4,5-b]pyridin-2-one], for which, under “Table 2”, the EC50 fell in the range of 0.1 to 100 nM.

For `CN1Cc2cc(Nc3ccc(N4CCC(C(F)(F)F)CC4)cc3)ccc2C1=N` [Compound 291, 1-imino-2-methyl-N-(4-(4-(trifluoromethyl)piperidin-1-yl)phenyl) isoindolin-5-amine], the half-maximal effective concentration (EC50) (Table 2) lay in the range of 0.1 to 100 nM.

For the compound `Cc1cc(N2CCC(C(F)(F)F)CC2)ccc1Nc1ccc2c(c1)C(=O)NCC(=O)N2` [Compound 644, 7-((2-methyl-4-(4-(trifluoromethyl)piperidin-1-yl)phenyl)amino)-3,4-dihydro-1H-benzo[e][1,4]diazepine-2,5-dione], for the setting “Table 3”, the concentration for a half-maximal effect (EC50) lay in the range of 0.1 to 100 nM.

For the compound `CC(C)(C)NC(=O)N1CCOc2cc(Nc3ccc(N4CCC(C(F)(F)F)CC4)cc3)ccc21` [Compound 25], the EC50 (Table 2) was in the range of 0.1 to 100 nM.

Turning to `CCNc1ccc(Nc2ccc3c(c2)OCC(=O)N3)c(C)c1` [Compound 635, 7-((4-(ethylamino)-2-methylphenyl)amino)-2H-benzo[b][1,4]oxazin-3(4H)-one], for the setting “Table 3”, the EC50 is 0.1 to 100 nM.

Consider `CC1CCN(c2ccc(Nc3ccc4c(c3)OCC(=O)N4C)cc2)CC1` [Compound 1, 4-methyl-7-((4-(4-methylpiperidin-1-yl)phenyl)amino)-2H-benzo[b][1,4]oxazin-3(4H)-one], for which the EC50 (Table 2) was 0.1 to 100 nM.

For `COc1cc(Nc2ccc(N3CCC(C(F)(F)F)CC3)cc2C)cc2c1N(C)C(=O)CO2` [Compound 565, 5-methoxy-4-methyl-7-((2-methyl-4-(4-(trifluoromethyl)piperidin-1-yl)phenyl)amino)-2H-benzo[b][1,4]oxazin-3(4H)-one], the EC50 (Table 3) lay within 0.1 to 100 nM.

As for `CN1C(=O)COc2cc(Nc3ccc(N4CCC(C(F)(F)F)CC4)cc3)cc(F)c21` [Compound 88, 5-fluoro-4-methyl-7-((4-(4-(trifluoromethyl)piperidin-1-yl)phenyl)amino)-2H-benzo[b][1,4]oxazin-3(4H)-one], for the setting “Table 2”, the half-maximal effective concentration (EC50) was 0.1 to 100 nM.

Regarding `Cn1c(=O)n(C)c2cc(Nc3ccc(N4CCC(C(F)(F)F)CC4)cc3)ccc21` [Compound 220, 1,3-dimethyl-5-((4-(4-(trifluoromethyl)piperidin-1-yl)phenyl)amino)-1,3-dihydro-2H-benzo[d]imidazol-2-one], the EC50 (Table 2) was 0.1 to 100 nM.

For `CC1CN(c2ccc(Nc3ccc4c(cnn4C)c3)cc2)CC(C)O1` (stereo not shown) [Compound 422, N-(4-(2,6-dimethylmorpholino)phenyl)-1-methyl-1H-indazol-5-amine], where the note is “Table 2”, the EC50 lay in the range of 0.1 to 100 nM.

For `CC1CCN(c2ccc(Nc3ccc4c(c3)OCC(=O)N4)cc2)CC1` [Compound 507, 7-((4-(4-methylpiperidin-1-yl)phenyl)amino)-2H-benzo[b][1,4]oxazin-3(4H)-one], under “Table 3”, the EC50 lay within 0.1 to 100 nM.

With `COCCOC1CCN(c2ccc(Nc3ccc4c(c3)OCC(=O)N4)c(C)c2)CC1` [Compound 505], under “Table 3”, the concentration for a half-maximal effect (EC50) lay in the range of 0.1 to 100 nM.

On to `Cc1cc(Nc2cc(F)c3c(c2)OCC(=O)N3C)ccc1N1CC(C)OC(C)C1` (stereo not shown) [Compound 132, 7-((4-(2,6-dimethylmorpholino)-3-methylphenyl)amino)-5-fluoro-4-methyl-2H-benzo[b][1,4]oxazin-3(4H)-one], for which the EC50 (Table 2) was in the range of 0.1 to 100 nM.

Consider `CC(C)(C)c1ccc(Nc2ccc3c(CCN)cc(=O)oc3c2)cc1` [Compound 121, 4-(2-aminoethyl)-7-((4-(tert-butyl)phenyl)amino)-2H-chromen-2-one], for which the EC50 (Table 2) lay in the range of 0.1 to 100 nM.

On to `Cc1cc(N2CCC(C(F)(F)F)CC2)ncc1Nc1ccc2c(c1)OCC(=O)N2` [Compound 453, 7-((4-methyl-6-(4-(trifluoromethyl)piperidin-1-yl)pyridin-3-yl)amino)-2H-benzo[b][1,4]oxazin-3(4H)-one], for which, where the note is “Table 3”, the EC50 lay in the range of 0.1 to 100 nM.

Turning to `CN1Cc2cc(Nc3ccc(N4CCCCC4)c(N(C)C)c3)ccc2C1=O` [Compound 303, 5-((3-(dimethylamino)-4-(piperidin-1-yl)phenyl)amino)-2-methylisoindolin-1-one], for the setting “Table 2”, the EC50 was 0.1 to 100 nM.

For the compound `Cn1nnc2cc(Nc3ccc(N4CCC(C(F)(F)F)CC4)cc3)ccc21` [Compound 300, 1-methyl-N-(4-(4-(trifluoromethyl)piperidin-1-yl)phenyl)-1H-benzo[d][1,2,3]triazol-5-amine], the EC50 (Table 2) lay in the range of 0.1 to 100 nM.

In the case of `Cc1nc2ccc(Nc3ccc(N4CCC(C)CC4)cc3)cc2o1` [Compound 339, 2-methyl-N-(4-(4-methylpiperidin-1-yl)phenyl)benzo[d]oxazol-6-amine], the EC50 (Table 2) was in the range of 0.1 to 100 nM.

As for `Cn1c(=O)c2ccc(Nc3ccc(N4CCC(C(F)(F)F)CC4)c(F)c3)cc2n1C(=O)OC(C)(C)C` [Compound 216, tert-butyl 6-((3-fluoro-4-(4-(trifluoromethyl)piperidin-1-yl)phenyl)amino)-2-methyl-3-oxo-2,3-dihydro-1H-indazole-1-carboxylate], where the note is “Table 2”, the EC50 lay within 0.1 to 100 nM.

As for `CCCCCN(CCCCOC)c1ccc(Nc2ccc3c(c2)OCC(=O)N3C)cc1` [Compound 4, 7-((4-((4-methoxybutyl)(pentyl)amino)phenyl)amino)-4-methyl-2H-benzo[b][1,4]oxazin-3(4H)-one], the EC50 (Table 2) lay in the range of 0.1 to 100 nM.

Take `COC1CCN(c2ccc(Nc3ccc4c(c3)OCC(=O)N4)c(C)c2)C1` (stereo not shown) [Compound 618, 7-{[4-(3-methoxypyrrolidin-1-yl)-2-methylphenyl]amino}-2,4-dihydro-1,4-benzoxazin-3-one]: the EC50 (Table 3) was 0.1 to 100 nM.

Consider `O=C1COc2cc(Nc3ccc(N4CCC(F)CC4)cc3)ccc2N1` [Compound 508, 7-((4-(4-fluoropiperidin-1-yl)phenyl)amino)-2H-benzo[b][1,4]oxazin-3(4H)-one], for which, for the setting “Table 3”, the concentration for a half-maximal effect (EC50) lay in the range of 0.1 to 100 nM.

On to `NCCc1cc2ccc(Nc3ccc(N4CCC(C(F)(F)F)CC4)cc3)cc2oc1=O` [Compound 125, 3-(2-aminoethyl)-7-((4-(4-(trifluoromethyl)piperidin-1-yl)phenyl)amino)-2H-chromen-2-one], for which, for the setting “Table 2”, the EC50 lay in the range of 0.1 to 100 nM.

As to `Cc1cc(Nc2ccc3c(c2)n(C)c(=O)n3C)cnc1N1CCC(C(F)(F)F)CC1` [Compound 371, 1,3-dimethyl-5-((5-methyl-6-(4-(trifluoromethyl)piperidin-1-yl)pyridin-3-yl)amino)-1,3-dihydro-2H-benzo[d]imidazol-2-one], the EC50 (Table 2) is 0.1 to 100 nM.

In the case of `Cn1[nH]c2cc(Nc3ccc(N4CCC(C(F)(F)F)CC4)cc3)ccc2c1=O` [Compound 191, 2-methyl-6-((4-(4-(trifluoromethyl)piperidin-1-yl)phenyl)amino)-1,2-dihydro-3H-indazol-3-one], the EC50 (Table 2) was 0.1 to 100 nM.

In the case of `Cc1cc(N2CC(C)OC(C)C2)ccc1Nc1cnc2c(c1)OCC(=O)N2` (stereo not shown) [Compound 462, 7-((4-(2,6-dimethylmorpholino)-2-methylphenyl)amino)-2H-pyrido[3,2-b][1,4]oxazin-3(4H)-one], the 50% effective concentration (EC50) (Table 3) lay in the range of 0.1 to 100 nM.

`Cc1nc(N2CCC(C(F)(F)F)CC2)ccc1Nc1ccc2c(c1)OCC(=O)N2C` [Compound 26, 4-methyl-7-((2-methyl-6-(4-(trifluoromethyl)piperidin-1-yl)pyridin-3-yl)amino)-2H-benzo[b][1,4]oxazin-3(4H)-one]: for the setting “Table 2”, the EC50 fell in the range of 0.1 to 100 nM.

Consider `FC(F)(F)C1CCN(c2ccc(Nc3ccc4ocnc4c3)cc2)CC1` [Compound 359, N-(4-(4-(trifluoromethyl)piperidin-1-yl)phenyl)benzo[d]oxazol-5-amine], for which the EC50 (Table 2) lay within 0.1 to 100 nM.

In the case of `COc1cc(Nc2ccc(N3CCC(C(F)(F)F)CC3)cc2)cc2c1oc(=O)n2C` [Compound 400, 7-methoxy-3-methyl-5-((4-(4-(trifluoromethyl)piperidin-1-yl)phenyl)amino)benzo[d]oxazol-2(3H)-one], under “Table 2”, the EC50 fell in the range of 0.1 to 100 nM.

For the compound `CN1C(=O)NCc2cc(Nc3ccc(N4CCC(C(F)(F)F)CC4)cc3)ccc21` [Compound 137, 1-methyl-6-((4-(4-(trifluoromethyl)piperidin-1-yl)phenyl)amino)-3,4-dihydroquinazolin-2(1H)-one], the EC50 (Table 2) is 0.1 to 100 nM.

For `Cc1cc(N2CCC(C)CC2)cc(C)c1Nc1ccc2c(c1)n(C)c(=O)n2C` [Compound 278, 5-((2,6-dimethyl-4-(4-methylpiperidin-1-yl)phenyl)amino)-1,3-dimethyl-1,3-dihydro-2H-benzo[d]imidazol-2-one], the EC50 (Table 2) lay in the range of 0.1 to 100 nM.

For the compound `CN1C(=O)COc2cc(Nc3ccc4c(c3)CCC4(C)C)ccc21` [Compound 42, 7-((1,1-dimethyl-2,3-dihydro-1H-inden-5-yl)amino)-4-methyl-2H-benzo[b][1,4]o xazin-3(4H)-one], the EC50 (Table 2) was in the range of 0.1 to 100 nM.

For `CN1C(=O)COc2cc(Nc3ccc(N4CCC(C(F)(F)F)CC4)cc3F)ccc21` [Compound 34, 7-((2-fluoro-4-(4-(trifluoromethyl)piperidin-1-yl)phenyl)amino)-4-methyl-2H-benzo[b][1,4]oxazin-3(4H)-one], the EC50 (Table 2) fell in the range of 100 to 1000 nM.

Consider `Cc1cc(N2CCC(C)CC2)ccc1Nc1cnc2c(c1)OCC(=O)N2` [Compound 575, 7-((2-methyl-4-(4-methylpiperidin-1-yl)phenyl)amino)-2H-pyrido[3,2-b][1,4]oxazin-3(4H)-one], for which the EC50 (Table 3) was 0.1 to 100 nM.

As for `O=c1ccc2cc(Nc3ccc(N4CCC(C(F)(F)F)CC4)cc3)ccc2o1` [Compound 123, 6-((4-(4-(trifluoromethyl)piperidin-1-yl)phenyl)amino)-2H-chromen-2-one], the EC50 (Table 2) is 0.1 to 100 nM.

On to `CC1CCN(c2c(F)cc(Nc3ccc4c(c3)n(C)c(=O)n4C)cc2F)CC1` [Compound 274, 5-((3,5-difluoro-4-(4-methylpiperidin-1-yl)phenyl)amino)-1,3-dimethyl-1,3-dihydro-2H-benzo[d]imidazol-2-one], for which the 50% effective concentration (EC50) (Table 2) was in the range of 0.1 to 100 nM.
